Legend:
HT29 tumor xenografts = assay: Therapeutic study and tumor growth modeling, HT29 tumor xenografts; assay type: in vivo, mice
Description: For tumor bearing studies, cells were harvested and resuspended in a 1∶1 mixture of serum-free RPMI and Matrigel (BD Bioscience). One million cells were injected subcutaneously into each rear flank of mice. Tumor volumes, measured by digital calipers, were calculated by V (mm^3) = length x (width)^2 x 0.5236.
When HT29 and HCT116 tumors reached an average volume of ∼325 mm^3 animals were randomized into four treatment groups (n = 9–10 mice per group): (i) vehicles, (ii) 5 mg/kg everolimus (RAD) by oral gavage (PO) daily, (iii) 10 mg/kg irinotecan (IRI) once weekly by intravenous (iv) tail vein injection, and (iv) a combination of RAD and IRI. Everolimus, diluted in sterile water, and irinotecan, diluted in sterile 0.9% saline, were administered at 4 mL/kg. Animals were treated for 28 days. Tumor volumes and body weights were measured 2–3 times weekly. On day 28 of treatment 3–6 animals per group were sacrificed, approximately 24 hours following everolimus treatment, and tumors harvested for metabolomic analysis.
Data from the in vivo study was modeled to assess the therapeutic benefit of adding everolimus to irinotecan. The model used was similar to a previously published model for assessing combination therapy. Some modifications were made and details of the model can be found in Supplement S1 (section SA.3.) and Supplement S2. All modeling was performed on individual animal tumor volume data and modeled with SAAM II version 2.1. […]
are presented in Tables 1 and 2 in Supplement B. Individual fits of the model to the data can also be found in Supplement B. The average growth terms for each tumor type were then fixed at the average parameter value and used to determine the single agent effects (kx) of each compound by fitting the following equation: […] where cx(t) is the concentration of drug x with respect to time. Individual tumors were modeled and the average value of kx determined (Supplement B Tables 1 & 2) for each single agent treatment. This value was used to fit the following equation to the combination tumor growth data to determine the degree of interaction between the two drugs.
, the interaction term, was determined for each individual tumor for each tumor type and the data is presented in Table 2 in the main text and individual fits can be found in Supplement B.
We determined that values greater than 1.3 are synergistic, between 1.3 and 0.7 are additive, between 0.7 and 0 are less than additive, and negative values for are antagonistic. These ranges were selected based on the model fits. The CV% for the model fits ranged from 15 to 50 with an average CV% of approximately 30%. Therefore we assume an average variance of 30% making the additive range from 1.3 to 0.7 (1 + 30% and 1- 30%). […]

[1] = Simulation of everolimus plasma concentrations at 5 mg/kg (two-compartment model); set-up: species or system mice
Description: Plasma and tumor pharmacokinetic parameters were calculated by noncompartmental analysis with WinNonlin. Everolimus plasma data was fit to a two-compartment model with first-order absorption and simulations of plasma concentrations at a 5 mg/kg dose of everolimus were performed by SAAM II version 2.1 (The Epsilon Group, Charlottesville, VA/University of Washington).
Everolimus [nmol/g tissue] […]
Everolimus plasma (A) and tumor (B) pharmacokinetics were measured in nude mice bearing HT29 xenografts.
10 (●) mg/kg everolimus daily for 7 days prior to sample collection.
Data represents the average of 3 samples and the lines represent the data fits to a two-compartment model with first-order absorption. The parameter estimates from the fits to the 2.5 and 10 mg/kg data were then used to simulate the steady-state dosing of 5 mg/kg RAD001 (C).
Simulations were generated based on daily dosing. Additional details of the study can be found in the main text.
To simulate data at different concentrations between 2.5 and 10 mg/kg the following assumptions were made; (1) everolimus absorption and its’ elimination from the central compartment is constant across dose levels, and (2) the volume of the central compartment varies linearly between doses. We believe these assumptions are valid since the pharmacokinetics appeared to be linear between 2.5 and 10 mg/kg doses, and the model fits the measured data at 2.5 and 10 mg/kg doses well and agrees with pharmacokinetic parameters estimated by non-compartmental analysis (Table S1). […]

[2] = everolimus 5 mg/kg dose in mice

CO[C@H]1C[C@@H]2CC[C@@H](C)[C@@](O)(O2)C(=O)C(=O)N2CCCC[C@H]2C(=O)O[C@H]([C@H](C)C[C@@H]2CC[C@@H](OCCO)[C@H](OC)C2)CC(=O)[C@H](C)/C=C(\C)[C@@H](O)[C@@H](OC)C(=O)[C@H](C)C[C@H](C)/C=C/C=C/C=C/1C [Everolimus, 40-O-(2-hydroxyethyl)-rapamycin]
k2 (SD), single agent effect (HT29 tumor xenografts; HT29 (BRAF and PIK3CA mutant), RAD): 0.000263 (0.00015) mL/ng*day-1 | average tumor growth inhibition, TGI (HT29 tumor xenografts; HT29 xenografts, 5 mg/kg everolimus PO daily, 10 mg/kg irinotecan iv once weekly, or combination, 28 days): 40% | AUCss,free ([1]; 5 mg/kg in mice, from simulated data): 37 ng·h/mL | average free concentration (Css,avg) [1, 2]: about 1.5 nM | free plasma concentration, Cmax [1, 2]: 6 nM | free plasma concentration, Cmin [1, 2]: 0.2 nM

From paper PMC3592886, “Utilization of Quantitative In Vivo Pharmacology Approaches to Assess Combination Effects of Everolimus and Irinotecan in Mouse Xenograft Models of Colorectal Cancer” (PLoS ONE, 2013)
